The source of these data is patent publication US9029414B2, “Triterpenoid compounds and methods of use thereof” (Biotechnology Research Corporation, priority 2008, dated 2015).

Structures are written as SMILES. pIC50: −log10 of the molar value.

Assay [1] addresses EP3 receptor (Homo sapiens, UniProt P43115). Briefly: Radioligand competition binding assay, EP3. Conditions: EP3, target PGE2; compound at 10 μM in duplicate; read-out: % inhibition of control specific binding. Here is the method:
(§1) To determine the targets of DA compounds, the compound was assessed in binding assays for the family of prostanoid receptors. Both compounds were tested at a single concentration (10 μM) in duplicate. DA001 and DA021 inhibit the ligand binding of prostaglandin E2 receptors EP1, EP2 and EP4 and moderately to prostaglandin (PGF) to its receptor (FP), but not prostaglandin I (PGI2), thromoboxane A and prostaglandin D2 to their receptors.
For orientation: In a radioligand displacement assay an active substance lowers the binding of a labelled ligand.

Assay [2] concerns scopolamine-induced memory impaired mice. Briefly: Morris water maze, scopolamine-induced memory impairment. Format: in vivo. Conditions: 10 mg/kg orally, scopolamine 4 mg/kg i.p.; day 4 and day 5. Here is the method: 6-8 week old outbred male I.C.R. mice, weighing 25-35 g were housed two per cage in a climatically controlled animal room (23-25° C.) under 12 hours light/dark cycling. The animals were allowed access to water and food ad lib. The mice used for the experiment were brought to particular laboratory conditions for two days. All the experiments were conducted between 14:00 and 18:00. […] The experimental mice were randomly assigned into 4 or 6 groups, each consisting of 12 mice with similar mean body weights and age. The test compound was dissolved in physiological saline before the experiments each day. […]
Each mouse was subjected to 4 trials per day for 5 consecutive days. […] The probe trial (without platform) was assessed within a 60 s period on the fifth day of behavioral testing (one experiment), and the time spent in the southeast quadrant where the escape platform had been set during training was recorded computationally and presented as percentage of spatial bias.
The two-way ANOVA with repeated measures was used to analyze latency values, and calculated as the mean latency periods for each mouse. (Data are expressed as means±S.E.M. by using 2-way ANOVA). One-way ANOVA followed by Duncan's multiple-range test (data expressed as mean±S.E.M. *P<0.05 and **P<0.01 versus scopolamine) was used to analyze group differences of the data collected during probe trials. […]

Assay [3] has as its target DP receptor (Homo sapiens, UniProt Q13258). In words: Radioligand competition binding assay, DP. Conditions: target PGD, compound at 10 μM in duplicate, read-out: % inhibition of control specific binding. As to the method:
as §1

Assay [4] relates to BALB/c mice. Briefly: Murine model of oxazolone-induced ear edema. The format is in vivo. Here is the method: This is a contract research performed by Washington Biotechnology Inc., Columbia, Md., protocol 1041. On day 0, 42 BALB/c mice (female, Harlan Sprague-Dawley, 5-6 weeks) were shaved on the ventral surface of the right ear. 100 μl of the 5% oxazolone solution (Sigma) was then applied to the saved ear. The treated mice were then returned to the cage and kept for additional 6 days. On day 7, the mice were weighed and dosed orally with 10 ml/kg water or DA021 at either 30 mg/kg or 100 mg/kg or topically applied on both sides of both ears with 25 μl betamethasone. Thirty minutes after oral dosing, 5 μl of 3% oxazolone was applied to both sides of the right ear and 5 μl of acetone was applied to both sides of the contralateral ear. Twenty-four hours after 3% oxazolone/acetone application, the mice were euthanized, the ears removed and weighed.
To evaluate the efficacy and potency of DA021 in acute inflammation, an oxazolone-induced ear edema model was carried out in mice. Oxazolone-induced ear edema model is a commonly used skin inflammatory animal model. Oxazolone (OA) is an allergen that induces immunological responses that lead to surface edema. […] Betamethasone (BMS) which was used as a positive control, is a corticosteroid that is used as an anti-itching cream and other anti-inflammatory remedies.
Mice were then treated with betamethasone (BMS, mg, topical) or DA021 (mg/kg, p.o.) and the ears were removed and weighed. N=10 per group, significance (p-value) was calculated versus OA+vehicle using the Student's T-test, *=P≦1×10^−7, #=P≦1×10^−12.

The subject of assay [5] is kainate receptor. In words: Radioligand competition binding assay, kainate. Conditions: 10 μM in duplicate. As to the method:
DA001 was evaluated against 109 receptor binding assays and 17 enzyme assays, comprising of selective, central and peripheral therapeutically-relevant targets. Radioligand competition assays were conducted whereby DA001 was tested at one concentration (10 μM) in duplicate. […] It could compete with the radioligand [^125I-NDP-alpha-melanocyte-stimulating hormone (α-MSH)] binding for MC1 and MC4 but not MC3 and MC5 nor the related family, the melanin concentrating hormone receptors (MCH1 and MCH2).

Assay [6] addresses human MC4 receptor (Homo sapiens, UniProt P32245). Briefly: Cellular receptor functional assay (cAMP), MC4. The format is cell-based. Conditions: cells over-expressing MC4. As to the method: FIG. 1. […] DA001 alone is unable to induce cAMP increase (blue square dots).
(§2) DA001 inhibits ligand binding to MC1 and MC4 receptors. To determine whether the inhibitory effect is due to agonist or antagonist activity, DA001 was evaluated at 6 or 8 concentrations in cellular assays assessing receptor function. Upon ligand binding, the MC1 or MC4 receptor is activated which leads to an increase in intracellular cyclic AMP. […] DA001 alone is unable to induce cAMP increase (blue square dots). […] DA001 was further evaluated with MC2 receptor functional assay. Upon ligand binding, the MC2 receptor is activated which leads to an increase in intracellular cyclic AMP.

Assay [7] has as its target T1, MC2 receptor (Homo sapiens, UniProt Q01718).
T1 construct: expressed in transfected cells
In words: Cellular receptor functional assay (cAMP), MC2. Format: cell-based. As to the method:
as §2

T1 sequence (Q01718 whole entry): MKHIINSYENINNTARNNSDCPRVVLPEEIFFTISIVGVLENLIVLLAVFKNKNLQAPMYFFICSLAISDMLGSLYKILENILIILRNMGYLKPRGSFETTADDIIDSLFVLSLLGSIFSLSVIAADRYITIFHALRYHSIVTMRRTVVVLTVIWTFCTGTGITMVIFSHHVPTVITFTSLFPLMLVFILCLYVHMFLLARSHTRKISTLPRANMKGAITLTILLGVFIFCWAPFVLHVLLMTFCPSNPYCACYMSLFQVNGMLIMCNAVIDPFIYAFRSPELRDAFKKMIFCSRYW
T1 sequence (Q8TCY5 whole entry partner): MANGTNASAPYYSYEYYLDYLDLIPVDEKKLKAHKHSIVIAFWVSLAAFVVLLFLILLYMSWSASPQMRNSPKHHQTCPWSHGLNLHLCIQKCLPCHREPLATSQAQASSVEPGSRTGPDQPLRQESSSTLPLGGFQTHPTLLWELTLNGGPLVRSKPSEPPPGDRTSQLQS
Sequence of human MC4 receptor (P32245 whole entry): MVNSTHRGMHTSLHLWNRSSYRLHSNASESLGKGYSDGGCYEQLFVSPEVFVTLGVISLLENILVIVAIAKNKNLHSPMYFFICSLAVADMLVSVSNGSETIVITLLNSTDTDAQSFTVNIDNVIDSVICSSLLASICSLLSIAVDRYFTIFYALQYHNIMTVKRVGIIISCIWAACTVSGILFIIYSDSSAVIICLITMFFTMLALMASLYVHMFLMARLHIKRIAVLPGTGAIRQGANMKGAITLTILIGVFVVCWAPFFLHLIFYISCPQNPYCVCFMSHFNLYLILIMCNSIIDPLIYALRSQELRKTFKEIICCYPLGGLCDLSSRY
Sequence of EP3 receptor (P43115 whole entry): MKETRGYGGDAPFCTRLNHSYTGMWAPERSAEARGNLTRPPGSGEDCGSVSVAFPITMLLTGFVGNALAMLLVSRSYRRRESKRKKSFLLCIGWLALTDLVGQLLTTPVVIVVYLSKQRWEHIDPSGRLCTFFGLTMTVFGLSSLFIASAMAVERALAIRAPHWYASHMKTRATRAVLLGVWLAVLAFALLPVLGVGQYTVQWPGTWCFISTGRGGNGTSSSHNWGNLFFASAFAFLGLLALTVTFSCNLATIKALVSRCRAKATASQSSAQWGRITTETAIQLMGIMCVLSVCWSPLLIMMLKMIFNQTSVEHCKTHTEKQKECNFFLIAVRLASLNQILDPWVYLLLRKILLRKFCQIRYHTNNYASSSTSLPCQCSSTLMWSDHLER
Sequence of DP receptor (Q13258 whole entry): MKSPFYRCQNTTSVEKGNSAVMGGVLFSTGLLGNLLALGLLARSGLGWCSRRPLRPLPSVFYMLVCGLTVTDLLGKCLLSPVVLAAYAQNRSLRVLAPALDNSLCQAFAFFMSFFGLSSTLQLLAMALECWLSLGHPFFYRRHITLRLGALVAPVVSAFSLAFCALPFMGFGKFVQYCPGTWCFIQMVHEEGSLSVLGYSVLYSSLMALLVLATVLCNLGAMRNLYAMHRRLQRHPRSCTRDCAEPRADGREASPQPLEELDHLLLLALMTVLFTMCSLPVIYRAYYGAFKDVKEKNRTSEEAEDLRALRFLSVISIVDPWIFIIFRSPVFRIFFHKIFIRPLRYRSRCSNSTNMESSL

Regarding `C=C(C)[C@@H]1CC[C@]2(/C=N/O)CC[C@]3(C)C(CCC4[C@@]5(C)CCC(=O)[C@@](C)(CO)[C@@H]5CC[C@]43C)C12` (stereo partly drawn) [DA021], the inhibition (usually the change of the read-out against control, counted positive when it falls) at 10 µM in assay [1] is -3%; in assay [3], 0%. In assay [2], the escape latency entry was “significantly reversed the increased escape latency”. Further, the entries for the “Change in Ear Weight (mg), Average” value in assay [4] (30 mg/kg po) and in assay [4] (100 mg/kg po) were 48.3 mg and 33.3 mg, respectively. Moreover, the “Change in Ear Weight, % Inhibition” value in assay [4] (30 mg/kg po) was 31.7%; in assay [4] (100 mg/kg po), 52.9%.

Turning to `C=C(C)[C@@H]1CC[C@]2(C(=O)O)CC[C@]3(C)C(CC[C@@H]4[C@@]5(C)CC[C@H](O[C@@H]6OC[C@H](O)[C@H](O)[C@H]6O[C@@H]6O[C@@H](C)[C@H](O)[C@@H](O)[C@H]6O)[C@@](C)(CO)[C@@H]5CC[C@]43C)[C@@H]12` (stereo partly drawn) [DA001, 3-O-[α-L-rhamnopyranosyl-(1→2)-α-L-arabinopyranosyl]-3,23-dihydroxy-20(29)-lupen-28-oic acid], in assay [5], the “% inhibition of control specific binding” value stood at 35%. In addition, the “agonist effect (cAMP increase by compound alone)” value in assay [6] (compound alone) was “did not induce an increase in cAMP”. In assay [6] (inhibition of cAMP increase by NDP-α-MSH, read-out: IC50, antagonist effect), the pIC50 – broadly, −log10 of the IC50, conventionally taken in molar units – was 4.77. In addition, the “Agonist effect, cAMP measurement” value in assay [7] (absence of ligand ACTH1-39, cells over-expressing MC2) is 0. In assay [7] (presence of ligand ACTH1-39, cells over-expressing MC2), the “Antagonist effect, cAMP measurement” value is on record as −8.
